Experimental data published in BindingDB's records for doi:10.1111/j.1747-0285.2012.01367.x (Peking University Health Science Center, 2012).

Molecular target: Beta-secretase 1 (Homo sapiens, UniProt P56817)
Test: BACE-1 Inhibiiton Assay
Protocol: Beta-Secretase inhibition evaluations were carried out using a fluorescence resonance energy transfer (FRET) assay kit supplied by PanVera (kit P2985).

Chain of Beta-secretase 1 (P56817 whole entry): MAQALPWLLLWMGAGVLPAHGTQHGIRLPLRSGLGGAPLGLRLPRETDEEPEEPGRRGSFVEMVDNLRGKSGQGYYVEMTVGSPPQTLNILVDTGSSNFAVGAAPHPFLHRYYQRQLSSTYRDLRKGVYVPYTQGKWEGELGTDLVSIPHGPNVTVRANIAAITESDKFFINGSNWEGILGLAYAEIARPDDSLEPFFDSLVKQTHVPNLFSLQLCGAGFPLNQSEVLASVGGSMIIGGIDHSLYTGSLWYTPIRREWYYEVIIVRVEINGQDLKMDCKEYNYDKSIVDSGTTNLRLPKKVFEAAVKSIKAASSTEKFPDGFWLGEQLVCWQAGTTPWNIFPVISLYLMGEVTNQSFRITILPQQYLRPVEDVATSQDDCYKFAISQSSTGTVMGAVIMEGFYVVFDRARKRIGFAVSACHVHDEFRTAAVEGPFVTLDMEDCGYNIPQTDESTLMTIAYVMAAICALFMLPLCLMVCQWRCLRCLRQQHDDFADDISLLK

SMILES | IC50 [nM]
O=C(NCc1ccc2c(c1)OCO2)c1cnc2cc(S(=O)(=O)Nc3cccc(C(F)(F)F)c3)ccc2c1O [B53] | 310
COc1ccc(-c2nc(SCC(=O)Nc3nc(-c4ccccc4)cs3)[nH]c(=O)c2C#N)cc1 [B51] | 4760
